# From patent publication US20050197350A1, “Novel quinoline, tetrahydroquinazoline, and pyrimidine derivatives and methods of treatment related to the use thereof” (TAISHO PHARMACEUTICAL CO., LTD., priority 2003, published 2005)
# System: MCH receptors
# Test: MCH receptor activity class (method not given)
# Details: MCH receptor activity class 1-3 (percent of control at 10^-7 M or IC50)
row,SMILES,class
1,CN(C)c1cc(N[C@H]2CC[C@@H](NC(=S)NCc3cccc4ccccc34)CC2)nc2ccccc12 [compound 2287],3 (Class 3 The value of percent of control at 10^−7 M was more than 60% or the value of IC50 was more than 200 nM.)
2,Cc1noc(-c2ccccc2)c1NC(=O)NC[C@H]1CC[C@@H](Nc2nccc(N(C)C)n2)CC1 [compound 2437],1 (Class 1: The value of percent of control at 10^−7 M was less than 40% or the value of IC50 was less than 50 nM.)

# Same assay, conditions: MCH receptor; class by percent of control at 10^-7 M or IC50
row,SMILES,class
1,"CCC(Oc1ccccc1)C(=O)NC[C@H]1CC[C@@H](Nc2cc(N(C)C)c3ccccc3n2)CC1 (relative stereo) [compound 175, N-[(cis-4-{[4-(dimethylamino)quinolin-2-yl]amino}cyclohexyl)methyl]-2-phenoxybutanamide]",3 (Class 3 The value of percent of control at 10^−7 M was more than 60% or the value of IC50 was more than 200 nM.)
2,COc1cc(C(=O)N[C@H]2CC[C@@H](Nc3cc(N(C)C)c4ccccc4n3)CC2)cc(OC)c1OC [compound 115],3 (Class 3 The value of percent of control at 10^−7 M was more than 60% or the value of IC50 was more than 200 nM.)

# Same assay, conditions: activity class 1-3: percent of control at 10^-7 M or IC50
row,SMILES,class
1,CN(C)c1nc(N[C@H]2CC[C@@H](NC(=O)Oc3ccc(Br)cc3)CC2)nc2c1CCCC2 [compound 1583],3 (Class 3 The value of percent of control at 10^−7 M was more than 60% or the value of IC50 was more than 200 nM.)
2,CCCCCCCCOC(=O)NC[C@H]1CC[C@@H](Nc2nc3c(c(N(C)C)n2)CCCC3)CC1 [compound 1606],3 (Class 3 The value of percent of control at 10^−7 M was more than 60% or the value of IC50 was more than 200 nM.)
3,CN(C)c1ccnc(N[C@H]2CC[C@@H](CNCCCCCCCCc3ccccc3)CC2)n1 [compound 1528],3 (Class 3 The value of percent of control at 10^−7 M was more than 60% or the value of IC50 was more than 200 nM.)
4,Cc1ccc(CNC[C@H]2CC[C@@H](Nc3nccc(N(C)C)n3)CC2)cc1I [compound 1537],3 (Class 3 The value of percent of control at 10^−7 M was more than 60% or the value of IC50 was more than 200 nM.)
5,CN(C)c1nc(N[C@H]2CC[C@@H](NC(=O)OCc3ccccc3)CC2)nc2c1CCCC2 [compound 1591],3 (Class 3 The value of percent of control at 10^−7 M was more than 60% or the value of IC50 was more than 200 nM.)

# Same assay, conditions: activity class per percent of control at 10^-7 M or IC50
row,SMILES,class
1,CN(C)c1nc(N[C@H]2CC[C@@H](NC(=O)Cc3sc(-c4ccccc4)nc3-c3ccc(Cl)cc3)CC2)nc2c1CCCC2 [compound 1037],3 (Class 3 The value of percent of control at 10^−7 M was more than 60% or the value of IC50 was more than 200 nM.)

# Same assay, conditions: class 1-3 by percent of control at 10^-7 M or IC50
row,SMILES,class
1,CCSc1ncccc1C(=O)NC[C@H]1CC[C@@H](Nc2nc3c(c(N(C)C)n2)CCCC3)CC1 [compound 598],1 (Class 1: The value of percent of control at 10^−7 M was less than 40% or the value of IC50 was less than 50 nM.)
2,CN(C)c1nc(N[C@H]2CC[C@@H](CNC(=O)Cc3ccc(Cl)cc3)CC2)nc2c1CCCC2 [compound 590],3 (Class 3 The value of percent of control at 10^−7 M was more than 60% or the value of IC50 was more than 200 nM.)
3,CN(C)c1nc(N[C@H]2CC[C@@H](NC(=O)c3ccc(Cl)cc3)CC2)nc2c1CCCC2 [compound 461],1 (Class 1: The value of percent of control at 10^−7 M was less than 40% or the value of IC50 was less than 50 nM.)
4,CN(C)c1nc(N[C@H]2CC[C@@H](NC(=O)c3ccc4nonc4c3)CC2)nc2c1CCCC2 [compound 459],1 (Class 1: The value of percent of control at 10^−7 M was less than 40% or the value of IC50 was less than 50 nM.)
5,CN(C)c1nc(N[C@H]2CC[C@@H](NC(=O)c3cc4ccccc4s3)CC2)nc2c1CCCC2 [compound 530],3 (Class 3 The value of percent of control at 10^−7 M was more than 60% or the value of IC50 was more than 200 nM.)

# Same assay, conditions: class by percent of control at 10^-7 M or IC50
row,SMILES,class
1,CN(C)c1ccnc(N[C@H]2CC[C@@H](NC(=O)C(CC(=O)c3ccc(Cl)cc3)SCc3ccc(Cl)cc3)CC2)n1 (relative stereo) [compound 881],3 (Class 3 The value of percent of control at 10^−7 M was more than 60% or the value of IC50 was more than 200 nM.)
2,CCOC(=O)[C@H](Cc1ccccc1)NC(=O)N[C@H]1CC[C@@H](Nc2nc3c(c(N(C)C)n2)CCCC3)CC1 (relative stereo) [compound 1730],3 (Class 3 The value of percent of control at 10^−7 M was more than 60% or the value of IC50 was more than 200 nM.)
3,COc1cccc2cc(C(=O)N[C@H]3CC[C@@H](Nc4nccc(N(C)C)n4)CC3)oc12 [compound 921],3 (Class 3 The value of percent of control at 10^−7 M was more than 60% or the value of IC50 was more than 200 nM.)
4,CN(C)c1ccnc(N[C@H]2CC[C@@H](CNC(=O)c3ccc(F)c(F)c3)CC2)n1 [compound 378],3 (Class 3 The value of percent of control at 10^−7 M was more than 60% or the value of IC50 was more than 200 nM.)
5,COc1ccc(F)cc1CNC[C@H]1CC[C@@H](Nc2cc(N(C)C)c3ccccc3n2)CC1 [compound 1173],3 (Class 3 The value of percent of control at 10^−7 M was more than 60% or the value of IC50 was more than 200 nM.)
6,CC(NC(=O)N[C@H]1CC[C@@H](Nc2cc(N(C)C)c3ccccc3n2)CC1)c1ccccc1 (relative stereo) [compound 2136],3 (Class 3 The value of percent of control at 10^−7 M was more than 60% or the value of IC50 was more than 200 nM.)
7,CCOc1c(Br)cc(Br)cc1CNC[C@H]1CC[C@@H](Nc2cc(N(C)C)c3ccccc3n2)CC1 [compound 1204],3 (Class 3 The value of percent of control at 10^−7 M was more than 60% or the value of IC50 was more than 200 nM.)
8,Cc1ccc(C(=O)NC[C@H]2CC[C@@H](Nc3nccc(N(C)C)n3)CC2)cc1[N+](=O)[O-] [compound 388],3 (Class 3 The value of percent of control at 10^−7 M was more than 60% or the value of IC50 was more than 200 nM.)
9,CN(C)c1ccnc(N[C@H]2CC[C@@H](NC(=O)Nc3cccc4ccccc34)CC2)n1 [compound 2220],3 (Class 3 The value of percent of control at 10^−7 M was more than 60% or the value of IC50 was more than 200 nM.)
10,CCc1cccc2c(C(CC(=O)c3ccc(C(C)(C)C)cc3)C(=O)N[C@H]3CC[C@@H](Nc4nccc(N(C)C)n4)CC3)c[nH]c12 (relative stereo) [compound 860],3 (Class 3 The value of percent of control at 10^−7 M was more than 60% or the value of IC50 was more than 200 nM.)
11,COc1ccccc1CCNC[C@H]1CC[C@@H](Nc2nc3c(c(N(C)C)n2)CCCC3)CC1 [compound 1504],3 (Class 3 The value of percent of control at 10^−7 M was more than 60% or the value of IC50 was more than 200 nM.)
12,CN(C)c1cc(N[C@H]2CC[C@@H](NC(=O)/C=C/c3ccccc3[N+](=O)[O-])CC2)nc2ccccc12 [compound 726],3 (Class 3 The value of percent of control at 10^−7 M was more than 60% or the value of IC50 was more than 200 nM.)

# Same assay, conditions: class by percent of control at 10^−7 M or IC50
row,SMILES,class
1,"Cc1cccc(C(=O)N[C@H]2CC[C@@H](Nc3ncc(C)c(N(C)C)n3)CC2)c1 [compound 2937, N-(cis-4-{[4-(dimethylamino)-5-methylpyrimidin-2-yl]amino}cyclohexyl)-3-methylbenzamide]",1 (Class 1: The value of percent of control at 10^−7 M was less than 40% or the value of IC50 was less than 50 nM.)
2,CCCc1ccc(NC(=O)[C@H]2CC[C@@H](Nc3ncc(C)c(N(C)C)n3)CC2)cc1 [compound 2785],2 (Class 2: The value of percent of control at 10^−7 M was from 40% to 60% or the value of IC′50 was from 50 nM to 200 nM.)
